{"source": "patent US20240316008A1", "about": "“TREATMENT OF SYSTEMIC IMMUNE ACTIVATION SYNDROMES” (TRANQUIS THERAPEUTICS, INC., priority 2020, published 2024)", "system": "IL-6", "assay": "Spontaneous IL-6 release of PBMCs from an ALS patient (ELISA)", "format": "cell-based, human", "conditions": "1 μM, 24 hours, no LPS, versus medium only", "method": "PBMCs from an ALS patient were used for this study. Whole blood samples were collected from the patient and processed for PBMC isolation with Ficoll gradient method. PBMC samples were stored in liquid nitrogen at […] for subsequent analysis of IL-6 production.\nFrozen PBMC samples were thawed and rested at 37° C. […] Therefore PBMC stimulation by LPS was not required to evaluate the effects of TQS-168 and metabolite TQS-621 on IL-6 production. PBMC samples (5×10^5 cells per well) were incubated with medium only, TQS-168 (1 μM) or TQS-621 (1 μM). After 24 hours, supernatants were collected for quantification of IL-6 levels by ELISA.", "data": [{"smiles": "CC(C)(C)c1ccc(-c2nc3ccccc3[nH]2)cc1", "note": "[TQS-168, 2-(4-tert-butylphenyl)-1H-benzimidazole]", "values": [{"measurement": "spontaneous release of IL-6 (amount of IL-6 produced)", "result": "reduction"}]}]}
